Measured values taken from ChEMBL document CHEMBL1759984, “Synthesis and structure-activity relationships of phenylpropanoid amides of serotonin on tyrosinase inhibition” (Bioorg Med Chem Lett, 2011).

How the values were obtained:
Tyrosinase = molecular target: T1, Tyrosinase (Agaricus bisporus, UniProt O42713)
T1 sequence (O42713 whole entry): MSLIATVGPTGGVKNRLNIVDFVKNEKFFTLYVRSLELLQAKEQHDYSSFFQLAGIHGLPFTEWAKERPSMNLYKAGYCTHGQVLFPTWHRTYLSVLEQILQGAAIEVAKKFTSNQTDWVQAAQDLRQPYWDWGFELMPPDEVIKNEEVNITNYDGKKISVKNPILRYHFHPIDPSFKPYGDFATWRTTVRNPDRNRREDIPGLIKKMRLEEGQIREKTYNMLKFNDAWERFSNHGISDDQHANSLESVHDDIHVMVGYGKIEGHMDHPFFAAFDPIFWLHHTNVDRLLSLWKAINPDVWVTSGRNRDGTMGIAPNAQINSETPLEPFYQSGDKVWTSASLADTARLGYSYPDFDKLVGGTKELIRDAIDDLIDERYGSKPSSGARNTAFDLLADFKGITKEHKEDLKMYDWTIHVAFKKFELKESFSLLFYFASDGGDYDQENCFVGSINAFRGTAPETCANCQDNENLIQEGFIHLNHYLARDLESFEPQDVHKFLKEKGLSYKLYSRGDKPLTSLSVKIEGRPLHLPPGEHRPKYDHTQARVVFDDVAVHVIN
Description: Inhibition of mushroom tyrosinase after 25 mins by spectrophotometry

[1] = system: Radical scavenging activity
Description: Antioxidant activity assessed as DPPH radical scavenging activity by spectrophotometry

Which results are given for `COc1ccc(/C=C/C(=O)O)cc1` [4-METHOXYCINNAMIC ACID]?
IC50 (Tyrosinase): > 350 µM; EC50 [1]: > 250 µM

What does the source list for `O=C(O)CCC(=O)NCCc1c[nH]c2ccc(O)cc12` [BUFOBUTANOIC ACID]?
IC50 (Tyrosinase): > 350 µM; EC50 [1]: 38.3 µM

For `O=C(O)/C=C/c1ccc(O)cc1` [COUMARIC ACID], which IC50 (Tyrosinase) is on record?
The IC50 was 121 µM.

What about the EC50 [1] of the same compound?
Its EC50 is over 250 µM.

For `COc1cc(/C=C/C(=O)O)ccc1O` [FERULATE], which IC50 (Tyrosinase) is on record?
The IC50 was over 350 µM.

And the EC50 [1]?
Its EC50 is over 250 µM.

With `COc1ccc(/C=C/C(=O)NCCc2c[nH]c3ccc(O)cc23)cc1OC` [N-3,4-DIMETHOXY CINNAMOYL SEROTONIN] as the compound, how does the IC50 (Tyrosinase) read?
The IC50 was 322 µM.

And the EC50 [1]?
Its EC50 is 28.1 µM.

With `O=C(/C=C/c1ccc(O)c(O)c1)NCCc1c[nH]c2ccc(O)cc12` [N-CAFFEOYLSEROTONIN] as the compound, how does the IC50 (Tyrosinase) read?
Its IC50 is 278 µM.

What about the EC50 [1] of the same compound?
Its EC50 is 19.4 µM.

`O=C(/C=C/c1ccccc1)NCCc1c[nH]c2ccc(O)cc12` [N-CINNAMOYL SEROTONIN] was tested. Which IC50 (Tyrosinase) did it give?
The IC50 was 40.4 µM.

What about the EC50 [1] of the same compound?
Its EC50 is 22.2 µM.

How did the IC50 (Tyrosinase) turn out when `COc1cc(/C=C/C(=O)NCCc2c[nH]c3ccc(O)cc23)ccc1O` [N-FERULOYL SEROTONIN] was run?
The IC50 was 8 µM.

And the EC50 [1]?
The EC50 was 22.8 µM.

How did the IC50 (Tyrosinase) turn out when `COc1ccc(/C=C/C(=O)NCCc2c[nH]c3ccc(O)cc23)cc1O` [N-ISOFERULOYL SEROTONIN] was run?
The IC50 was 5.4 µM.

What about the EC50 [1] of the same compound?
The EC50 was 35.1 µM.

Which IC50 (Tyrosinase) does the source give for `O=C(/C=C/c1ccc(O)cc1)NCCc1c[nH]c2ccc(O)cc12` [N-P-COUMAROYL SEROTONIN] here?
The IC50 was 8.8 µM.

What about the EC50 [1] of the same compound?
Its EC50 is 24.7 µM.

How did the IC50 (Tyrosinase) turn out when `COc1ccc(/C=C/C(=O)NCCc2c[nH]c3ccc(O)cc23)cc1` [N-P-METHOXY CINNAMOYL SEROTONIN] was run?
Its IC50 is 23.8 µM.

What about the EC50 [1] of the same compound?
The EC50 was 34.2 µM.

`COc1cc(/C=C/C(=O)NCCc2c[nH]c3ccc(O)cc23)cc(OC)c1O` [N-SINAPOYL SEROTONIN] was tested. Which IC50 (Tyrosinase) did it give?
The IC50 was over 350 µM.

What about the EC50 [1] of the same compound?
Its EC50 is 30.7 µM.

`NCCc1c[nH]c2ccc(O)cc12` [SEROTONIN] was tested. Which IC50 (Tyrosinase) did it give?
The IC50 was over 350 µM.

And the EC50 [1]?
The EC50 was over 250 µM.

Which results are given for `COc1cc(/C=C/C(=O)O)cc(OC)c1O` [SINAPINATE]?
IC50 (Tyrosinase): > 351 µM; EC50 [1]: > 250 µM
